In patent publication US8673955B2, “Imidazole derivatives as fructose-1,6-bisphosphatase inhibitors and pharmaceutical compositions containing them” (Merck Patent GmbH, priority 2005, dated 2014):
Read-outs that look alike come from different tables or passages of the source.

Assays:
[1] = molecular target: T1, human liver recombinant Fructose-1,6-bisphosphatase (Homo sapiens, UniProt P09467); assay: Inhibition of human liver recombinant fructose-1,6-bisphosphatase, coupled spectrophotometric enzyme assay; type: biochemical
T1 sequence (P09467 1-338): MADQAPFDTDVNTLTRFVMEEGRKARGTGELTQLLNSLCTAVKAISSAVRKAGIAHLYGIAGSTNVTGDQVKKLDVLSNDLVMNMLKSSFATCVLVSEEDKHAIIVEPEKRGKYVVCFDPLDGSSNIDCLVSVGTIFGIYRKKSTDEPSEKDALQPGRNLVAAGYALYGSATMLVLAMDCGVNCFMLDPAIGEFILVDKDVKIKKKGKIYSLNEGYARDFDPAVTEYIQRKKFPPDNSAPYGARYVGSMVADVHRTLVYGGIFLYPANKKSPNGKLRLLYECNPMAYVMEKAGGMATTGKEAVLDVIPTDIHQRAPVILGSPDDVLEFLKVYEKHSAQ
Procedure: Enzymatic activity was measured spectrophotometrically in reactions that coupled the formation of product (fructose 6-Phosphate) to the reduction of NADP+, using phosphoglucoisomerase (PGI) and glucose 6-phosphate dehydrogenase (G6PDH) as the coupling enzymes.
Reaction mixtures (250 μl) were made up in 96-well microtitre plates, and consisted of 20 mM triethanolamine, pH 7.5, 2 mM MgCl2, 0.1 mM EDTA, 40 mM ammonium sulfate, 0.5 mM NADP, 1 U/ml G6PDH, 1 U/ml PGI and 0.167 mM substrate (Fructose 1,6-bisphosphate). The inhibitors were prepared at 10^-2 M in DMSO 100% and tested at 10^-5 M (DMSO 0.1%).
Reactions were started by the addition of the human liver recombinant Fructose-1,6-bisphosphatase and were monitored for 30 minutes at 340 nm in a Tecan Plate Reader (Room temperature).

[2] = test system: primary culture of rat hepatocytes; assay: Hepatic glucose production in primary culture of rat hepatocytes (DHA as gluconeogenic precursor); type: cell-based; conditions: 100 μM compound; 3 h incubation with DHA; control without compound = 100%
Procedure: Effects of the compounds previously described on hepatic glucose production in primary culture of rat hepatocytes.
Hepatocytes were isolated from normal Wistar rats in overnight fasted condition by collagenase perfusion as described by Seglen (Methods Cell Biol., (1975); 13, 29-83). Cell viability was assessed by the trypan blue exclusion test. The isolated hepatocytes were suspended in William's medium containing 10% fetal bovine serum in 6 well plates. After cell attachment (4 h) the medium was changed to remove cellular debris and replaced by serum-free minimum essential medium without glucose and the hepatocytes were cultured for 16-18 h (37° C.; 5%, CO2). At the end of the culture and after removing the medium, glucose production was assessed by incubating hepatocytes for 3 h in KREBS buffer supplemented with dihydroxyacetone (DHA) as a gluconeogenic precursor in the presence or not of the different compounds previously described. After the 3 h incubation time, the amount of glucose in the buffer was assayed by a glucose oxidase method (GOD). The total amount of cellular protein per well was measured by the method of Lowry. The results were expressed as nanomoles of glucose produced per mg cell protein. The activity of the tested compounds was expressed as % of control glucose production in presence of DHA and without compound (100%).

[3] = stated in method text, read-out: IC50 for reference inhibitors of Fructose-1,6-bisphosphatase
[4] = 0.167 mM fructose 1,6-bisphosphate, pH 7.5, room temperature, read-out: Inhibition of human F-1,6-Bpase IC50

SMILES | IC50 [1, 3] | IC50 [1, 4] | Hepatic glucose production (rat hepatocytes) % of control at 100 μM [2]
Nc1ncnc2c1ncn2[C@@H]1O[C@H](COP(=O)(O)O)[C@@H](O)[C@H]1O [AMP, reference compound] | ~10 µM | – | –
O=C(O)c1ccc(Cn2cc(COCc3ccc(Cl)cc3)nc2-c2ccc(Br)cc2)cc1 [Example 47, 4-[2-(4-Bromophenyl)-4-(4-chlorobenzyloxymethyl)imidazol-1-ylmethyl]benzoic acid] | – | 88.3 µM | 61 % of control
O=P(O)(O)OC[C@H]1O[C@@](CO)(OP(=O)(O)O)[C@@H](O)[C@@H]1O [Fructose-2,6-Bisphosphate, reference compound] | ~35 µM | – | –
O=C(O)c1ccc(Cn2cc(COCc3cccc(-c4ccccc4)c3)nc2-c2ccc(Cl)s2)cc1 [Example 20, 4-[4-(Biphenyl-3-ylmethoxymethyl)-2-(5-chlorothiophen-2-yl)imidazol-1-ylmethyl]benzoic acid] | – | 70.2 µM | 10 % of control
Cc1nc(-c2ccc3ccc(COCc4cn(Cc5ccc(C(=O)O)cc5)c(-c5ccc(Cl)s5)n4)cc3c2)no1 [Example 26, 4-{2-(5-Chlorothiophen-2-yl)-4-[7-(5-methyl-[1,2,4]-oxadiazol-3-yl)naphthalen-2-ylmethoxymethyl]imidazol-1-ylmethyl}benzoic acid] | – | 51.2 µM | 44 % of control
